The target in data set [1] is T1, GCP (Rattus norvegicus, UniProt P70627).
T1 construct: Reconstituted pellet preparations from rat paw pads were used as source of GCP II; from tissue; host or cells: male Wistar rat paw pad skin (plantar hindpaw), 16000xg pellet; animals dosed i.p. with 2-PMPA
It counts as in vivo. As to conditions: 1 hour after administration. How it is done:
A determination of GCP activity was carried out using male Wistar rat paw pads. Skin was collected from the planter hindpaw by 3 mm skin biopsy dissection and sonicated for 2 minutes in ice. The mixture was centrifuged for 2 minutes at 16000×g and the resulting pellet was reconstituted similar to the pellets obtained from the human skin dissections. Reconstituted pellet preparations from rat paw pads were used as source of GCP II and incubated with [^3H] NAAG, as described above for the human skin samples.
In order to determine if GCP activity in skin in vivo could be inhibited by peripheral administration of 2-PMPA, rats were administered vehicle (HEPES saline, pH 7, 50 mM) or 2-PMPA (1, 10 and 100 mg/kg, i.p.) using a dosing volume of 2 mL/kg. There were 10 animals in each group. Animals were sacrificed 1 hour after 2-PMPA or vehicle administration. […]

A short description of data set [2]: 2-PMPA level in paw pads by LC-MS/MS. As to conditions: 100 mg/kg i.p., 1 hour after administration, n=9, LC-MS/MS. It counts as in vivo, rat. The procedure:
The presence of 2-PMPA in skin was determined. Animals were given 2-PMPA (100 mg/kg, i.p.), sacrificed 1 hour after compound administration and paw pads isolated for direct determination of 2-PMPA levels by LC-MS/MS. Since 2-PMPA detection by mass spectrometry has low sensitivity due to ion suppression, samples from animals that had received 100 mg/kg 2-PMPA rather than 10 mg/kg were analyzed to increase the probability of detecting 2-PMPA.
Briefly, frozen samples were thawed in a water bath at ambient temperature and subjected to a liquid extraction using MeOH. Samples were placed in brown glass vials containing 500 μL of 100% MeOH. […] The sample was transferred to a 250 μL polypropylene auto sampler vial sealed with a Teflon crimp cap, and a volume of 50 μL was injected onto the HPLC instrument for quantitative analysis using a temperature-controlled auto sampling device operating at 10° C.
Chromatographic analysis was performed using a Waters ACQUITY UPLC (Milford, Mass., USA). […] The column effluent was monitored using an AB SCIEX TRIPLE QUAD 5500 triple-quadrupole mass-spectrometric detector (Applied Biosystems, Foster City, Calif., USA). […] The daughter ions for 2-PMPA (m/z 191.1) and the internal standard (m/z 255.1) were monitored through the third quadrupole (Q3). […]

Data set [3] has as its system GCP. Kind of data set: GCP enzyme activity assay with human skin biopsy pellet ([3H]-NAAG cleavage). The format is biochemical. As to conditions: 2-PMPA 1 μM added to assay mixture; [3H]-NAAG 70 nM, 37° C. The procedure: Punch skin biopsies (3 mm) were obtained from the distal thigh of healthy human volunteers after anesthesia with 0.5 cc 2% lidocaine subcutaneous injection. Samples were placed in cold Tris buffer (pH 7.4) and GCP enzymatic activity was carried out within 1 hour of collection. The skin were homogenized, the homogenate was centrifuged and the pellet was used as source of GCP in the enzyme activity assay. Briefly, human skin biopsies were sonicated in Tris buffer (pH 7.4, 40 mM, 0.5 mL) for 1 minute in ice. The mixture was centrifuged for 2 minutes at 16000×g; the supernantant (containing endogenous […]) was removed and the resulting pellet (containing GCP) was reconstituted in 70 μL assay buffer (Tris pH 7.4, 40 mM containing 1 mM CoCl2) and used as source of GCP in the activity assay. Reconstituted pellet was then incubated with [^3H] […] The radioactivity in each vial corresponding to [^3H]-glutamate was determined via a Beckman LS-6000IC scintillation counter. Radioactivity values in dpm were converted to fmoles of glutamate using the relation 1 pCi/2.2 dpm and the specific activity of [^3H]-glutamate (same as that of [^3H]-NAAG: 1 fmole/50 pCi). As a result, if 16711 dpm [^3H]-glutamate were measured after incubating 10 mg tissue for 1 h, the normalized activity would be: 16711 dpm×(1 pCi/2.2 dpm)×(1 fmole/50 pCi)/10 mg tissue=15 fmole/h/mg tissue. […]

The test system of data set [4] is GCP. Briefly: GCP activity in rat sciatic nerve after peripheral (i.p.) administration. It counts as in vivo. Particulars: 1 hour after administration. From the text:
Sciatic nerve is the target tissue for GCP inhibitors in clinical trials for peripheral neuropathy and neuropathic pain. To obtain sciatic nerve samples, 1-2 cm incisions were made to the skin on top of the rat's mid-thigh so that sciatic nerve, gluteus superficialis muscle and biceps femoris muscle were exposed. The three were then separated and 5 mm of sciatic nerve was removed and analyzed as described above for the human skin and rat paw pad samples. GCP activity in sciatic nerve preparations from animals treated with 1, 10 and 100 mg/kg 2-PMPA was reduced to 92±11, 35±6 and 10±4% respectively compared to activity in sciatic nerve isolated from control animals (FIG. 3). Albeit to a different extent, GCP inhibition in sciatic nerve is attained at similar 2-PMPA doses (10 and 100 mg/kg i.p.) as in footpad tissue.

Read-outs that look alike come from different tables or passages of the source.

T1 sequence (P70627 whole entry): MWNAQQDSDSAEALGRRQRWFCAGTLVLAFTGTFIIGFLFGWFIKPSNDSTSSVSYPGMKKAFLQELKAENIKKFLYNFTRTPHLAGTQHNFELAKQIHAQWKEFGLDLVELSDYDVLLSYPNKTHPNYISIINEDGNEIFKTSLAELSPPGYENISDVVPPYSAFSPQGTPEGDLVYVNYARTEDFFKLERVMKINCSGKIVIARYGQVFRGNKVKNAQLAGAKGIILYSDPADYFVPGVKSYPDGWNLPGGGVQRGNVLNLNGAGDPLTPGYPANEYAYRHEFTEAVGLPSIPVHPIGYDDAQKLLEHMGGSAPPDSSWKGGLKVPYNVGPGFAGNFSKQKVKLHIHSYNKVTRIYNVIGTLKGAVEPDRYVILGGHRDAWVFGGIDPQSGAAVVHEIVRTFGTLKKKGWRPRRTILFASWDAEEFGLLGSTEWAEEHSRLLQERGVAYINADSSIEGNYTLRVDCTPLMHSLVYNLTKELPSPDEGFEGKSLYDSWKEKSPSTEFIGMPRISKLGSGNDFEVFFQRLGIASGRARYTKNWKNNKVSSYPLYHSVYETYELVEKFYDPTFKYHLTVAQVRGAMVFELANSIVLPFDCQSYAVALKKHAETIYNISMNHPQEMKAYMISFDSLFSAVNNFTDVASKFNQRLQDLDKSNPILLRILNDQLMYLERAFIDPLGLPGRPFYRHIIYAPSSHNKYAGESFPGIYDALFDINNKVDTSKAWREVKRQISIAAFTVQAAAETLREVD

For the compound `O=C(O)CCC(CP(=O)(O)O)C(=O)O` (stereo not shown) [2-PMPA], the figures for the “GCP activity in paw pads compared to control animals” value at GCP [1] (10 mg/kg i.p.) and at GCP [1] (100 mg/kg i.p.) were 60±11% and 47±11%, respectively. In addition, the “2-PMPA concentration in paw pads” value in data set [2] amounted to 38±5 μg/g tissue. In the data set with GCP [3], the “inhibition of GCP activity in human skin pellet preparations” value came to 90%. Besides, the “GCP activity in sciatic nerve preparations compared to control animals” value in the data set with GCP [4] (1 mg/kg i.p.) amounted to 92±11%; in the data set on GCP [4] (10 mg/kg i.p.), 35±6%; in the data set with GCP [4] (100 mg/kg i.p.), 10±4%.
